From US20230257396A1, “MACROCYCLES AND THEIR USE” (BLOSSOMHILL THERAPEUTICS, INC., priority 2020, published 2023)

How the values were obtained:
Assay in all cases: KINOMEscan kinase binding assay (Eurofins/DiscoveRx), % Ctrl
Conditions in all cases: 1 μM
kinases [1] = biological target: T1, kinases (Homo sapiens, UniProt P07949, V804M)
T1 construct: purchased Eurofins/DiscoveRx; host or cells: E. coli BL21-derived host (T7 phage display) for most kinases; HEK-293 for the rest
In short: (§1)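 Competition binding, 1 h RT: phage-tagged or HEK-293-expressed DNA-tagged kinase + immobilized ligand + compound. Eluate kinase by qPCR. % Ctrl = (test − positive ctrl)/(negative ctrl − positive ctrl) × 100; lower means stronger binding.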

kinases [2] = biological target: T2, kinases (Homo sapiens, UniProt P00519, T315I)
T2 construct: purchased Eurofins/DiscoveRx; host or cells: E. coli BL21-derived host (T7 phage display) for most kinases; HEK-293 for the rest
In short: as §1

kinases [3] = biological target: T3, kinases (Homo sapiens, UniProt P00519, Y253F)
T3 construct: purchased Eurofins/DiscoveRx; host or cells: E. coli BL21-derived host (T7 phage display) for most kinases; HEK-293 for the rest
In short: as §1

kinases [4] = biological target: T4, kinases (Homo sapiens, UniProt P36888)
T4 construct: purchased Eurofins/DiscoveRx; host or cells: E. coli BL21-derived host (T7 phage display) for most kinases; HEK-293 for the rest
T4 sequence (P36888 27-993): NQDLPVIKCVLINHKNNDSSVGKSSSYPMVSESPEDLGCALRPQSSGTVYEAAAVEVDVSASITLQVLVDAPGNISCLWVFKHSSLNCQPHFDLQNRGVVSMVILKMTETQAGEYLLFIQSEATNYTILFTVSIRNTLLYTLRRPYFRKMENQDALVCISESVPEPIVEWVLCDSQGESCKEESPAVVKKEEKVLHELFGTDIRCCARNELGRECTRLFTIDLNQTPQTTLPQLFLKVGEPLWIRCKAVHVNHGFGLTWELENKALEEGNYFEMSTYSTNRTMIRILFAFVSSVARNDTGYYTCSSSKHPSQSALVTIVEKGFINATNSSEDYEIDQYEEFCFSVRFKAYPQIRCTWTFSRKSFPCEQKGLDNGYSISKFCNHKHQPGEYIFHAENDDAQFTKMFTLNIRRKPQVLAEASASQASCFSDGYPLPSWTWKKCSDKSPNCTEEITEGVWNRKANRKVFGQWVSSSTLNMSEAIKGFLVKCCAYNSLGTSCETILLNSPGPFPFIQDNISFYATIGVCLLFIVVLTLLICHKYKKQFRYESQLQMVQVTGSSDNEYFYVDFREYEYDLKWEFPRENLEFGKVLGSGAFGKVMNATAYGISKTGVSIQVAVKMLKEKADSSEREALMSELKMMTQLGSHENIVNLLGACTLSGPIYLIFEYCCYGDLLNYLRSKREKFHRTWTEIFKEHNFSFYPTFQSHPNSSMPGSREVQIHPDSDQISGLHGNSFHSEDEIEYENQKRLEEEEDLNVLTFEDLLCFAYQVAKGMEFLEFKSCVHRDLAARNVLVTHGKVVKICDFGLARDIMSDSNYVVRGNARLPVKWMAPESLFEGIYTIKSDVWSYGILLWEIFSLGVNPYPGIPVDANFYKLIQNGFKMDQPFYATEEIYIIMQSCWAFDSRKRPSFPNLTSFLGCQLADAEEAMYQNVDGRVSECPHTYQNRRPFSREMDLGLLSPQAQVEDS
In short: as §1

kinases [5] = biological target: T5, kinases (Homo sapiens, UniProt P00519, E255K)
T5 construct: purchased Eurofins/DiscoveRx; host or cells: E. coli BL21-derived host (T7 phage display) for most kinases; HEK-293 for the rest
In short: as §1

T1 sequence (P07949 29-1114 V804M): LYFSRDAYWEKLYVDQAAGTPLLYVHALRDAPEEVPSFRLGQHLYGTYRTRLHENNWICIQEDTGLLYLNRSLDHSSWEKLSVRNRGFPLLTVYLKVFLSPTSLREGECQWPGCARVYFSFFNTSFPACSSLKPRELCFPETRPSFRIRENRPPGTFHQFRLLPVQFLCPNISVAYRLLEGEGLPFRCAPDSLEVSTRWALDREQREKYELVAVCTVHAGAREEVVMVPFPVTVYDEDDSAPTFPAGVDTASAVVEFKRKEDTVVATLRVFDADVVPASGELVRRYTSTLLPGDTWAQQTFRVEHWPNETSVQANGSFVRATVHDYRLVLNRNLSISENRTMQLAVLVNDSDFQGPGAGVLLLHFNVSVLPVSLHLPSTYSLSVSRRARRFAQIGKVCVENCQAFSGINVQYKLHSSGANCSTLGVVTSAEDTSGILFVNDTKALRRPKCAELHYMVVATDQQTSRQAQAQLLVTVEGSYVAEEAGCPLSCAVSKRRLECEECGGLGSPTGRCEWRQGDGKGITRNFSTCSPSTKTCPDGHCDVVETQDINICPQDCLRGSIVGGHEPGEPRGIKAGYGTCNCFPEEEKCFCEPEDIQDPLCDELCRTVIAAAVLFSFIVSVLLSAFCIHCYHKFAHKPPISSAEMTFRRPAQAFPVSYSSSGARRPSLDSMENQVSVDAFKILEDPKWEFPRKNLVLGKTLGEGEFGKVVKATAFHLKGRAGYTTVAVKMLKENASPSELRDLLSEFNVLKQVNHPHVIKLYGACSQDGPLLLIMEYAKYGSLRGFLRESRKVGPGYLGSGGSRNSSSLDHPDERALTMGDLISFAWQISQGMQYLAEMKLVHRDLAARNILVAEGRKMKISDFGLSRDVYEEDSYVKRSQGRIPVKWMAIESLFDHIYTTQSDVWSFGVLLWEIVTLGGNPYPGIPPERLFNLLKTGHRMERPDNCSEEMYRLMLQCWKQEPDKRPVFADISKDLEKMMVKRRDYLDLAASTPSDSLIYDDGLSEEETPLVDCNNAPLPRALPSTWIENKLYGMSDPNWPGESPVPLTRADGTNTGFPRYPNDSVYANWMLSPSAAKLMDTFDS

SMILES | % Ctrl, RET(V804M) (kinases [1]; RET(V804M)) [% Ctrl] | % Ctrl, ABL1(T315I)-nonphosphorylated (kinases [2]; ABL1(T315I)-nonphosphorylated) [% Ctrl] | % Ctrl, ABL1(T315I)-phosphorylated (kinases [2]; ABL1(T315I)-phosphorylated) [% Ctrl] | % Ctrl, ABL1(Y253F)-phosphorylated (kinases [3]; ABL1(Y253F)-phosphorylated) [% Ctrl] | % Ctrl, FLT3 (kinases [4]; FLT3) [% Ctrl] | % Ctrl, FLT3-autoinhibited (kinases [4]; FLT3-autoinhibited) [% Ctrl] | % Ctrl, ABL1(E255K)-phosphorylated (kinases [5]; ABL1(E255K)-phosphorylated) [% Ctrl] | % Ctrl, RET(V804M) (kinases [1]; target RET(V804M)) [% Ctrl] | % Ctrl, ABL1(T315I)-nonphosphorylated (kinases [2]; target ABL1(T315I)-nonphosphorylated) [% Ctrl] | % Ctrl, ABL1(T315I)-phosphorylated (kinases [2]; target ABL1(T315I)-phosphorylated) [% Ctrl] | % Ctrl, ABL1(Y253F)-phosphorylated (kinases [3]; target ABL1(Y253F)-phosphorylated) [% Ctrl] | % Ctrl, FLT3-autoinhibited (kinases [4]; target FLT3-autoinhibited) [% Ctrl] | % Ctrl, FLT3 (kinases [4]; target FLT3) [% Ctrl] | % Ctrl, ABL1(E255K)-phosphorylated (kinases [5]; target ABL1(E255K)-phosphorylated) [% Ctrl]
Cc1cc2c([nH]1)/C=C1\C(=O)Nc3ccc(cc31)OCCOCCNC2=O [Ex. 129, [16a(17)Z]-2-methyl-6,7,9,10-tetrahydro-1H-12,14-(ethanediylidene)dipyrrolo[3,2-i:3′,4′-l][1,4,7]dioxazacyclopentadecine-4,16(5H,15H)-dione] | 94 | 92 | 91 | 98 | 100 | 98 | 89 | – | – | – | – | – | – | –
Cc1cc2c([nH]1)/C=C1\C(=O)Nc3ccc(cc31)CN(C)C(=O)COCCNC2=O [Ex.111, [17a(18)Z]-2,11-dimethyl-6,7,11,12-tetrahydro-1H-13,15-(ethanediylidene)dipyrrolo[3,2-f:3′,4′-i][1,4,14]oxadiazacyclohexadecine-4,10,17(5H,9H,16H)-trione] | 51 | 90 | 64 | 58 | 45 | 95 | 42 | – | – | – | – | – | – | –
Cc1cc2c([nH]1)/C=C1\C(=O)Nc3cc(Cl)c(cc31)OCCO[C@@H](C(=O)N[C@@H]1CCNC1)CN(C)C2=O [Ex. 136, [7R,16a(17)Z]-19-chloro-2,5-dimethyl-4,16-dioxo-N-[(3R)-pyrrolidin-3-yl]-4,5,6,7,9,10,15,16-octahydro-1H-12,14-(ethanediylidene)dipyrrolo[3,2-i:3′,4′-l][1,4,7]dioxazacyclopentadecine-7-carboxamide] | 64 | 77 | 37 | 16 | 36 | 97 | 36 | – | – | – | – | – | – | –
Cc1cc2c([nH]1)/C=C1\C(=O)Nc3ccc(cc31)-c1c(noc1C)COCCN(C)C2=O [Ex. 128, [3a(4)Z]-6,9,16-trimethyl-1,11-dihydro-2H,13H-1,17-(ethanediylidene)[1,4]oxazolo[4,3-m]dipyrrolo[3,2-f:3′,4′-i][1,4]oxazacyclopentadecine-3,8(5H,9H)-dione] | 55 | 20 | 4.2 | 49 | 66 | 89 | 25 | – | – | – | – | – | – | –
Cc1cc2c([nH]1)/C=C1\C(=O)Nc3cnc(cc31)-c1cn[nH]c1CNCCN(C)C2=O [Ex. 55, [3a(4)Z]-6,9-dimethyl-9,10,11,12,13,14-hexahydro-17,1-(azenometheno)pyrazolo[4,3-m]dipyrrolo[3,2-f:3′,4′-i][1,4]diazacyclopentadecine-3,8(2,5H)-dione] | – | – | – | – | – | – | – | 0.3 | 1.6 | 2.6 | 3.1 | 10 | 11 | 2.6
